Measured values taken from patent US20250345392A1, “ANNEXIN A1 LIQUID PHARMACEUTICAL COMPOSITION” (ResoTher Pharma A/S, priority 2022, published 2025).
Like-named read-outs stand apart in the source and are kept apart here. Ends that are not written are not given here.

Test: Clinical test in humans, single 30-min i.v. infusion, plasma PK
Type: in vivo
Details: human; for AUC(0-inf) / Cmax / Vd / clearance / AUC(0-t) / half-life / Tmax: in vivo, iv
Description: A total of 8 healthy subjects were included in each group. Group 1 received 25 μg/kg of Peptide 1, Group 2 received 50 μg/kg of Peptide 1, Group 3 received 100 μg/kg of Peptide 1, Group 4 received 150 μg/kg of Peptide 1, Group 5 received 200 μg/kg of Peptide 1 and Group 7 received 400 μg/kg of Peptide 1.
The tested liquid pharmaceutical composition has a pH of 8.2-8.4, and comprises the following: • i) 5 mg/ml of Peptide 1, • ii) 4% (w/w) mannitol, • iii) 1% (w/w) sucrose, • iv) 0.01% (w/w) Polysorbate-80, • v) 10 mM glycyl-glycine, and • vi) sterile water for injection.
In these groups, 6 subjects received the active treatment (i.e. a single Peptide 1 30-min intravenous (i.v.) infusion corresponding to the above doses) and 2 received the placebo. In order to prevent any anticipated unblinding, the subjects under active treatment were recorded by the bioanalytical laboratory.
Blood samples were collected for PK purpose for Peptide 1 determinations on Day 1 at the following time points: pre-dose, then, 10 min, 20 min, 30 min (30 min=0.5), 0.75, 1.0, 1.5, 2.0, 2.5, 3.0, 4.0, 6.0, 8.0, 12.0, 16.0 and 24.0 h after the infusion start.
Venous whole blood samples were collected from all subjects.
Plasma samples were analyzed for Peptide 1 using validated Liquid chromatography—Tandem Mass spectrometry (LC-MS/MS) methods by Charles River Laboratories (CRL).
Derivation of PK parameters were carried out by PhinC Development using Phoenix WinNonlin® (Version Phoenix 8.1—Certara—Princeton—USA). A non-compartmental analysis (NCA) approach was chosen.
For the calculation of the PK parameters and characteristics the following rules were applied: • All the plasma concentrations validated by the bioanalytical laboratory and provided to the pharmacokineticist were used for the PK analysis. • The theoretical PK blood sampling time points were used. • At time points in the lag-time between time zero and the first concentration equal or above limit of quantification (LOQ), concentrations below the LOQ (BLQ) were set to zero (0). • Concentrations BLQ between 2 concentrations equal or above LOQ were considered as missing. • Trailing concentrations (at time point between time of last measurable concentrations and time of last blood sample) BLQ were not used in calculations. • For concentration above the upper limit of quantification and reported as above limit of quantification (ALQ) in the final plasma concentration tables, ALQ was considered as missing for the PK analysis. • Not reported (NR) concentration was excluded from the PK analysis. • For the first administration, if pre-dose concentration was less than or equal to 5% of Cmax value in a PK profile, the subject's data was included in all PK measurements and calculations without any adjustments. If the pre-dose value was greater than 5% of Cmax, the subject was dropped from all statistical evaluations.
The following PK parameters of Peptide 1, were derived for each subject receiving the active treatment on Day 1: • Cmax: The observed maximum concentration in plasma measured in a subject after dosing identified by inspection of the plasma drug concentration versus (vs.) time data by WinNonlin®. • tmax: The time at which Cmax was apparent, identified by inspection of the plasma drug concentration vs. time data by Phoenix WinNonlin®. • AUC0-24: The area under the concentration-time curve from time zero (pre-dose) to 24 h was calculated using a linear trapezoidal method. AUC0-24 was only calculated if there were at least 3 concentrations above LOQ. • AUC0-t: The area under the concentration-time curve from time zero (pre-dose) to the time of last quantifiable concentration was calculated using a linear trapezoidal method. The AUC was only calculated if there were at least 3 concentrations above LOQ. • ke: The terminal plasma elimination rate-constant was estimated from log-linear regression analysis of the terminal phase of the plasma concentration-time profile. […]

[1] = 25 ug/kg, single 30-min i.v. infusion 25 μg/kg, GM
[2] = 50 ug/kg, single 30-min i.v. infusion 50 μg/kg, mean
[3] = 100 ug/kg, single 30-min i.v. infusion 100 μg/kg, mean
[4] = 150 ug/kg, single 30-min i.v. infusion 150 μg/kg, GM
[5] = 150 ug/kg, single 30-min i.v. infusion 150 μg/kg, mean
[6] = 200 ug/kg, single 30-min i.v. infusion 200 μg/kg, GM
[7] = 400 ug/kg, single 30-min i.v. infusion 400 μg/kg, mean
[8] = single 30-min i.v. infusion 25 μg/kg, mean
[9] = single 30-min i.v. infusion 50 μg/kg, GM
[10] = single 30-min i.v. infusion 100 μg/kg, GM
[11] = single 30-min i.v. infusion 200 μg/kg, mean
[12] = single 30-min i.v. infusion 400 μg/kg, GM
[13] = single 30-min i.v. infusion 400 μg/kg, mean

## AMVSEFLKQAWFIENEEQEYVQTLKSSKGGPGSAVSPYPTFNPSSDV-NH2 [Peptide 1]
Between 100 μg/kg and 400 μg/kg (dose increased by 4-fold)
  increase of exposure parameters (Cmax and AUCs): about 4.3 fold
Between 150 μg/kg and 400 μg/kg (dose increased by 2.7-fold)
  increase of exposure parameters (Cmax and AUCs): around 3.2 fold
Between 200 μg/kg and 400 μg/kg (dose increased by 2 fold)
  increase of exposure parameters (Cmax and AUCs): around 2 fold
[1]
  AUC(0-inf): 211 ng·h/mL
  Cmax: 161 ng/mL
  Vd: 0.13 L/kg
  clearance: 2 mL/min/kg
  Tmax: 30 min
25 ug/kg, single 30-min i.v. infusion 25 μg/kg, GM, read-out: AUC0-24
  AUC(0-t): 211 ng·h/mL
25 ug/kg, single 30-min i.v. infusion 25 μg/kg, GM, read-out: AUC0-t
  AUC(0-t): 130 ng·h/mL
25 ug/kg, single 30-min i.v. infusion 25 μg/kg, GM, read-out: t1/2 (converted)
  half-life: 47.4 min
25 ug/kg, single 30-min i.v. infusion 25 μg/kg, mean
  Vd: 0.14 L/kg
25 ug/kg, single 30-min i.v. infusion 25 μg/kg, mean, read-out: AUC0-t
  AUC(0-t): 132 ng·h/mL
50 ug/kg, single 30-min i.v. infusion 50 μg/kg, GM
  AUC(0-inf): 456 ng·h/mL
50 ug/kg, single 30-min i.v. infusion 50 μg/kg, GM, read-out: AUC0-24
  AUC(0-t): 457 ng·h/mL
50 ug/kg, single 30-min i.v. infusion 50 μg/kg, GM, read-out: AUC0-t
  AUC(0-t): 369 ng·h/mL
50 ug/kg, single 30-min i.v. infusion 50 μg/kg, GM, read-out: t1/2 (converted)
  half-life: 54 min
[2]
  AUC(0-inf): 464 ng·h/mL
  Cmax: 375 ng/mL
  Vd: 0.14 L/kg
  clearance: 1.83 mL/min/kg
50 ug/kg, single 30-min i.v. infusion 50 μg/kg, mean, read-out: AUC0-24
  AUC(0-t): 464 ng·h/mL
50 ug/kg, single 30-min i.v. infusion 50 μg/kg, mean, read-out: AUC0-t
  AUC(0-t): 378 ng·h/mL
50 ug/kg, single 30-min i.v. infusion 50 μg/kg, mean, read-out: t1/2 (converted)
  half-life: 55.2 min
100 ug/kg, single 30-min i.v. infusion 100 μg/kg, GM
  Cmax: 899 ng/mL
100 ug/kg, single 30-min i.v. infusion 100 μg/kg, GM, read-out: t1/2 (converted)
  half-life: 67.8 min
[3]
  AUC(0-inf): 1110 ng·h/mL
  Cmax: 916 ng/mL
  Vd: 0.15 L/kg
  clearance: 1.5 mL/min/kg
100 ug/kg, single 30-min i.v. infusion 100 μg/kg, mean, read-out: AUC0-24
  AUC(0-t): 1110 ng·h/mL
100 ug/kg, single 30-min i.v. infusion 100 μg/kg, mean, read-out: AUC0-t
  AUC(0-t): 1000 ng·h/mL
100 ug/kg, single 30-min i.v. infusion 100 μg/kg, mean, read-out: t1/2 (converted)
  half-life: 69 min
[4]
  AUC(0-inf): 1490 ng·h/mL
  Cmax: 1250 ng/mL
  Vd: 0.16 L/kg
150 ug/kg, single 30-min i.v. infusion 150 μg/kg, GM, read-out: AUC0-24
  AUC(0-t): 1490 ng·h/mL
150 ug/kg, single 30-min i.v. infusion 150 μg/kg, GM, read-out: AUC0-t
  AUC(0-t): 1370 ng·h/mL
150 ug/kg, single 30-min i.v. infusion 150 μg/kg, GM, read-out: t1/2 (converted)
  half-life: 67.8 min
[5]
  AUC(0-inf): 1520 ng·h/mL
  Cmax: 1280 ng/mL
  Vd: 0.17 L/kg
  clearance: 1.67 mL/min/kg
150 ug/kg, single 30-min i.v. infusion 150 μg/kg, mean, read-out: AUC0-24
  AUC(0-t): 1520 ng·h/mL
150 ug/kg, single 30-min i.v. infusion 150 μg/kg, mean, read-out: AUC0-t
  AUC(0-t): 1400 ng·h/mL
150 ug/kg, single 30-min i.v. infusion 150 μg/kg, mean, read-out: t1/2 (converted)
  half-life: 69 min
[6]
  AUC(0-inf): 2280 ng·h/mL
  Cmax: 1700 ng/mL
  Vd: 0.18 L/kg
  clearance: 1.5 mL/min/kg
  Tmax: 30 min
200 ug/kg, single 30-min i.v. infusion 200 μg/kg, GM, read-out: AUC0-24
  AUC(0-t): 2280 ng·h/mL
200 ug/kg, single 30-min i.v. infusion 200 μg/kg, GM, read-out: AUC0-t
  AUC(0-t): 2120 ng·h/mL
200 ug/kg, single 30-min i.v. infusion 200 μg/kg, GM, read-out: t1/2 (converted)
  half-life: 86.4 min
[7]
  AUC(0-inf): 4870 ng·h/mL
  Vd: 0.19 L/kg
  clearance: 1.33 mL/min/kg
400 ug/kg, single 30-min i.v. infusion 400 μg/kg, mean, read-out: AUC0-24
  AUC(0-t): 4870 ng·h/mL
400 ug/kg, single 30-min i.v. infusion 400 μg/kg, mean, read-out: AUC0-t
  AUC(0-t): 4720 ng·h/mL
400 ug/kg, single 30-min i.v. infusion 400 μg/kg, mean, read-out: t1/2 (converted)
  half-life: 98.4 min
[8]
  AUC(0-inf): 211 ng·h/mL
  Cmax: 162 ng/mL
  clearance: 2 mL/min/kg
Single 30-min i.v. infusion 25 μg/kg, mean, read-out: AUC0-24
  AUC(0-t): 211 ng·h/mL
Single 30-min i.v. infusion 25 μg/kg, mean, read-out: t1/2 (converted)
  half-life: 47.4 min
[9]
  Cmax: 371 ng/mL
  Vd: 0.14 L/kg
  clearance: 1.83 mL/min/kg
[10]
  AUC(0-inf): 1100 ng·h/mL
  Vd: 0.15 L/kg
  clearance: 1.5 mL/min/kg
Single 30-min i.v. infusion 100 μg/kg, GM, read-out: AUC0-24
  AUC(0-t): 1100 ng·h/mL
Single 30-min i.v. infusion 100 μg/kg, GM, read-out: AUC0-t
  AUC(0-t): 991 ng·h/mL
Single 30-min i.v. infusion 150 μg/kg, GM
  clearance: 1.67 mL/min/kg
[11]
  AUC(0-inf): 2280 ng·h/mL
  Cmax: 1700 ng/mL
  Vd: 0.18 L/kg
  clearance: 1.5 mL/min/kg
Single 30-min i.v. infusion 200 μg/kg, mean, read-out: AUC0-24
  AUC(0-t): 2280 ng·h/mL
Single 30-min i.v. infusion 200 μg/kg, mean, read-out: AUC0-t
  AUC(0-t): 2120 ng·h/mL
Single 30-min i.v. infusion 200 μg/kg, mean, read-out: t1/2 (converted)
  half-life: 87 min
[12]
  AUC(0-inf): 4840 ng·h/mL
  Cmax: 3400 ng/mL
  Vd: 0.19 L/kg
  clearance: 1.33 mL/min/kg
Single 30-min i.v. infusion 400 μg/kg, GM, read-out: AUC0-24
  AUC(0-t): 4840 ng·h/mL
Single 30-min i.v. infusion 400 μg/kg, GM, read-out: AUC0-t
  AUC(0-t): 4690 ng·h/mL
Single 30-min i.v. infusion 400 μg/kg, GM, read-out: t1/2 (converted)
  half-life: 97.2 min
[13]
  Cmax: 3420 ng/mL
  Vd: ~0.19 L/kg
  clearance: ~1.33 mL/min/kg
Single 30-min i.v. infusion, range at all dose levels, read-out: GM t1/2
  half-life: 48 to 96 min
Single 30-min i.v. infusion, all subjects
  time of first measurable concentrations after the start of infusion: 0.16 h
Single 30-min i.v. infusion, highest dose
  time up to which concentrations were measurable in all subjects after the start of infusion: at least 6 hours
Single 30-min i.v. infusion, lowest dose
  time up to which concentrations were measurable in all subjects after start of the infusion: at least 1 hour
50 ug/kg, single 30-min i.v. infusion 50 μg/kg, median
  Tmax: 30 min
100 ug/kg, single 30-min i.v. infusion 100 μg/kg, median
  Tmax: 30 min
150 ug/kg, single 30-min i.v. infusion 150 μg/kg, median
  Tmax: 30 min
400 ug/kg, single 30-min i.v. infusion 400 μg/kg, median
  Tmax: 30 min
Single 30-min i.v. infusion, all subjects (time of the end of infusion)
  Tmax: 30 min
